Experimental data as given in patent publication US20130142847A1, “S-ADENOSYLMETHIONINE FORMULATIONS WITH ENHANCED BIOAVAILABILITY” (Methylation Sciences, Inc., priority 2009, published 2013).
One block for each compound: values may come before it.

Columns and labels:
Caco-2 cell monolayers [1] = assay: Permeability of SAMe across Caco-2 cell monolayers (Example 3); conditions: for Papp_a-b Apical to Basal: apical to basolateral; for Papp_a-b Apical to Basal / Papp_b-a Basal to Apical: HBSS pH 7.4, 120 minute incubation, SAMe salt 2 mM; for Papp_b-a Basal to Apical: basolateral to apical
Method: (§1) In these models, pure cell lines are grown on a semi-permeable membrane. Drug formulations are placed on the apical or basolateral side of the cell monolayer and transport is determined via measurement of drug concentrations on the other side of the membrane.
(§2) The Caco-2 cell line utilized here was from the American Type Culture Collection (ATCC). Caco-2 cells are grown in Dulbecco's modified Eagle's medium (DMEM, Gibco) supplemented with 20% FBS (fetal bovine serum, Gibco), 100 uM non-essential amino acids (NEAA, Gibco) and 2 mM L-glutamine (Gibco). A Beckton Dickinson BIOCOAT® HTS Caco-2 Assay System Kit is used resulting in 6.6×10^5 cells/cm^2 seeding density (BIOCOAT is a registered trademark of Collaborative Biomedical Products, Inc., Bedford, Mass., USA). The cells used in transport studies are grown for 3 days before the experiments. The culturing conditions are 37° C. in an atmosphere of 5% CO2 and 100% humidity.
(§3) For permeability across Caco-2 cell monolayers, the transport medium used was Hank's Buffered Salt Solution (HBSS; purchased from Gibco) containing D-glucose, and HEPES pH adjusted to 7.4. A 2 mM aqueous solution of either SAMe tosylate disulfate or SAMe 1,4 butanedisulfonate was added on the apical or basolateral side according to the manufacturer's procedure for the Caco-2 kit. Samples were measured after 120 minute incubation by liquid chromatography-mass spectrometry (LC/MS). The integrity of the monolayers was monitored using Lucifer Yellow Assay. […] Propranolol is a high permeability marker and was utilized as a positive control for a readily absorbed molecule.

[2] = as above; conditions: human, Caco-2, pH 7.4
Method: as §1, §2, §3

Caco-2 cell monolayers [3] = assay: Caco-2 permeability of SAMe in the presence of tight junction modulators (Examples 3a, 3c); conditions: for effect on SAMe uptake / SAMe permeability: in the presence of the agent, result in words; for change in SAMe permeability across the Caco-2 cell monolayer: sulfobetaine 0.15 mM as the enhancer; for Permeability Coefficient: SAMe permeability; for Fold Transport Increase: SAMe transport vs SAMe control
Method: (§4) Similar to the description above, the Caco-2 cell line was obtained from ATCC and grown in DMEM (Sigma-Aldrich) supplemented with 20% FBS (Sigma-Aldrich), 100 uM non-essential amino acids (Sigma-Aldrich) and 2 mM L-glutamine (Sigma-Aldrich). The Caco-2 cells grown in tissue culture flasks were trypsinized, suspended in medium, and the suspensions were applied to wells of a collagen-coated BioCoat Cell Environment in 24-well format at 24,500 cells per well. The cells were allowed to grow and differentiate for three weeks, feeding at 2-day intervals.
(§5) For apical to basolateral permeability, a 2 mM aqueous solution of SAMe tosylate disulfate was added to the apical side and the amount of permeation was determined on the basolateral side. The apical and basolateral side buffers contained modified Transport Buffer (25 mM HEPES, 1× Hank's Balanced Salt Solution (Sigm-Aldrich)) pH 7.4. Caco-2 cells were incubated with these buffers for 2 hours, and the receiver side buffer was removed for analysis by LC/MS/MS. The receiver, donor, and dosing solution were diluted with an equal volume of 0.2 N HCl immediately after the assay in order to increase SAMe stability. Donor and dosing solution were diluted 100-fold to ensure that the concentration was within the linear range of the assay.
(§6) The permeability (Papp) of SAMe is calculated using the following formula:
(§7) Where dQ/dt is the rate of permeation, C0 is the initial concentration of test agent, and A is the area of the monolayer.
(§8) In vitro Caco-2 testing was performed as detailed above using 0.15 mM of sulfobetaine-10, sulfobetaine-12, sulfobetaine-14, sulfobetaine-16, or sulfobetaine-18 as the enhancer.

Caco-2 cell monolayers [4] = assay: 24 hour resistance recovery test (Caco-2 cell recovery post treatment); assay type: cell-based, human
Method: As part of these in vitro studies, the degree of Caco-2 cell recovery (as observed by degree of permeability and cell attachment 24 hours post treatment with each tight junction modulator) was also investigated. This 24 hour resistance recovery test is an indirect measure of epithelial cell disruption and data supporting a trend toward less in vitro disruption may be associated with less impact in vivo.

[5] = Single dose pharmacokinetic study of enteric coated SAMe capsules in fasted male beagle dogs; assay type: in vivo; conditions: for effect on in vivo bioavailability of SAMe / amount of SAMe in the plasma versus control: beagle dogs, capsule 200 mg SAMe ion + 200 mg enhancer vs control capsule, result in words
Method: Following collection, samples were centrifuged (at 4° C.) to separate the plasma fraction from the blood cells. The resulting plasma fraction was recovered and stored frozen (at −80° C.) using polypropylene tubes pending bioanalytical analysis.
This method employs stable-isotope dilution liquid chromatography-electrospray […] tandem mass spectrometry (LC-ESI-MS/MS) to determine SAMe and SAH in plasma.

[6] = Caco-2 permeability of SAMe in the presence of tight junction modulators (Examples 3a, 3c); conditions: human, Caco-2, pH 7.4, Permeability Coefficient, permeability control compound itself, 50 uM
Method: as §4, §5, §6, §7, §8

[7] = Plasma SAMe metabolites after 1600 mg of a commercially available SAMe formulation; assay type: in vivo; conditions: all time points after 1600 mg dose of commercially available SAMe; seven subjects
Method: This finding is in contrast to the general dogma surrounding SAMe metabolism which continually reports that low SAMe bioavailability is due to active metabolism by the liver upon administration. […] In order to test this theory, the inventors measured the level of S-adenosyl homocysteine (SAH), the primary metabolite of SAMe, at various time points after administration of a 1600 mg dose of a commercially available SAMe formulation.

cultured rat hepatocytes = conditions: McMillan et al. 2005; cited from earlier work
[8] = literature reports; cited from earlier work
Caco-2 cells = conditions: McMillan et al. 2005; cited from earlier work
[9] = plasma, fasted male beagle dogs, single oral enteric coated capsule, 200 mg SAMe ion with or without 200 mg enhancer

Papp_a-b Apical to Basal (Caco-2 cell monolayers [1]): 22.4 ×10⁻⁶ cm/s
Papp_b-a Basal to Apical (Caco-2 cell monolayers [1]): 18.4 ×10⁻⁶ cm/s
Papp A→B at 120 min [2]: 22.4 ×10⁻⁶ cm/s
Papp B→A at 120 min [2]: 18.4 ×10⁻⁶ cm/s
SMILES: CC(C)NCC(O)COc1cccc2ccccc12 (stereo not drawn) [Propranolol]

Papp at 2 h, 50 uM ([6]; run 2): 48.8 ×10⁻⁶ cm/s
Papp at 2 h, 50 uM ([6]; run 3): 49 ×10⁻⁶ cm/s
Papp at 2 h, 50 uM ([6]; run 4): 46.6 ×10⁻⁶ cm/s
SMILES: CC(=O)CC(c1ccccc1)c1c(O)c2ccccc2oc1=O (stereo not drawn) [Warfarin, reference compound]

Papp at 2 h, 50 uM ([6]; run 2): 0.91 ×10⁻⁶ cm/s
Papp at 2 h, 50 uM ([6]; run 3): 0.91 ×10⁻⁶ cm/s
Papp at 2 h, 50 uM ([6]; run 4): 1 ×10⁻⁶ cm/s
SMILES: CNC(=C[N+](=O)[O-])NCCSCc1ccc(CN(C)C)o1 [Ranitidine, reference compound]

Permeability Coefficient (Caco-2 cell monolayers [3]; enhancer 0.15 mM (Table 7)): 0.654 ×10⁻⁶ cm/s
Fold Transport Increase (Caco-2 cell monolayers [3]; enhancer 0.15 mM (Table 7)): 5.0X
change in SAMe permeability across the Caco-2 cell monolayer (Caco-2 cell monolayers [3]): at least a five-fold increase
TEER Resist. 24 hour post assay (Caco-2 cell monolayers [4]; enhancer 0.15 mM): 1892 ohms
SAMe AUC [5, 9]: 10226 ng·h/mL
SAMe Cmax [5, 9]: 4148 ng/mL
SMILES: CCCCCCCCCCCCCC[N+](C)(C)CCCS(=O)(=O)[O-] [Sulfobetaine-14]
effect on in vivo bioavailability of SAMe / amount of SAMe in the plasma versus control [5]: significant increase in the bioavailability of SAMe

Permeability Coefficient (Caco-2 cell monolayers [3]; enhancer 0.15 mM (Table 7)): 0.257 ×10⁻⁶ cm/s
Fold Transport Increase (Caco-2 cell monolayers [3]; enhancer 0.15 mM (Table 7)): 1.4X
change in SAMe permeability across the Caco-2 cell monolayer (Caco-2 cell monolayers [3]): did not improve SAMe permeability
TEER Resist. 24 hour post assay (Caco-2 cell monolayers [4]; enhancer 0.15 mM): 1923 ohms
SMILES: CCCCCCCCCCCC[N+](C)(C)CCCS(=O)(=O)[O-] [Sulfobetaine-12]

Permeability Coefficient (Caco-2 cell monolayers [3]; enhancer 0.15 mM (Table 7)): 0.218 ×10⁻⁶ cm/s
Fold Transport Increase (Caco-2 cell monolayers [3]; enhancer 0.15 mM (Table 7)): 1.2X
TEER Resist. 24 hour post assay (Caco-2 cell monolayers [4]; enhancer 0.15 mM): 1553 ohms
SMILES: CCCCCCCC[N+](C)(C)CCCS(=O)(=O)[O-] [Sulfobetaine-8]

change in SAMe permeability across the Caco-2 cell monolayer (Caco-2 cell monolayers [3]): did not improve SAMe permeability
SMILES: CCCCCCCCCC[N+](C)(C)CCCS(=O)(=O)[O-] [sulfobetaine-10]

Papp_a-b Apical to Basal (Caco-2 cell monolayers [1]): 0.5 ×10⁻⁶ cm/s
Papp_b-a Basal to Apical (Caco-2 cell monolayers [1]): 0.6 ×10⁻⁶ cm/s
SMILES: C[S+](CC[C@H](N)C(=O)[O-])C[C@H]1O[C@@H](n2cnc3c(N)ncnc32)[C@H](O)[C@@H]1O.O=S(=O)(O)CCCCS(=O)(=O)O (stereo partly drawn) [SAMe 1,4 butanedisulfonate]

The next lines start with the compound.

SMILES: CCCCCCCCCCCCCCCC[N+](C)(C)CCCS(=O)(=O)[O-] [3-(N,N-Dimethylpalmitylammonio)propanesulfonate]
effect on SAMe uptake / SAMe permeability (Caco-2 cell monolayers [3]): marked increase in SAMe permeability
change in SAMe permeability across the Caco-2 cell monolayer (Caco-2 cell monolayers [3]): at least a five-fold increase
TEER Resist. 24 hour post assay (Caco-2 cell monolayers [4]; enhancer 0.6 mM): 33 ohms
effect on in vivo bioavailability of SAMe / amount of SAMe in the plasma versus control [5]: significant increase in the amount of SAMe present in the plasma

SMILES: CCCCCCCCCCCCCCCC(=O)OC(CC(=O)O)C[N+](C)(C)C.[Cl-] (stereo not drawn) [Palmitoyl Carnitine Chloride (PCC), Palmitoyl carnitine chloride]
Permeability Coefficient (Caco-2 cell monolayers [3]; test article 0.15 mM, run 2): 0.78 ×10⁻⁶ cm/s
Permeability Coefficient (Caco-2 cell monolayers [3]; test article 0.15 mM, run 4): 5 ×10⁻⁶ cm/s
Permeability Coefficient (Caco-2 cell monolayers [3]; test article 0.4 mM, run 4): 10 ×10⁻⁶ cm/s
effect on SAMe uptake / SAMe permeability (Caco-2 cell monolayers [3]): marked increase in SAMe permeability

SMILES: Nc1ncnc2c1ncn2[C@@H]1O[C@H](CSCC[C@H](N)C(=O)O)[C@@H](O)[C@H]1O [SAH, S-adenosyl homocysteine]
plasma concentration of SAH relative to SAMe [7]: significantly lower than the level of SAMe itself

SMILES: CCCCCCCCCCCCCCCCCC[N+](C)(C)CCCS(=O)(=O)[O-] [Sulfobetaine-18]
Permeability Coefficient (Caco-2 cell monolayers [3]; enhancer 0.15 mM (Table 7)): 0.649 ×10⁻⁶ cm/s
Fold Transport Increase (Caco-2 cell monolayers [3]; enhancer 0.15 mM (Table 7)): 5.0X
change in SAMe permeability across the Caco-2 cell monolayer (Caco-2 cell monolayers [3]): at least a five-fold increase
TEER Resist. 24 hour post assay (Caco-2 cell monolayers [4]; enhancer 0.15 mM): 292 ohms

SMILES: C[S+](CC[C@H](N)C(=O)O)C[C@H]1O[C@@H](n2cnc3c(N)ncnc32)[C@H](O)[C@@H]1O (stereo partly drawn) [SAMe, S-adenosyl-L-methionine]
absorption by cultured rat hepatocytes (cultured rat hepatocytes): poorly absorbed
fold increase in SAMe permeability (Caco-2 cell monolayers [1]; calcium-free buffer): 13-24 fold
SAMe bioavailability when orally administered [8]: less than 5%
transport through a monolayer of Caco-2 cells (Caco-2 cells): poorly transported

SMILES: CCCCCCCCCC(=O)[O-].[Na+] [Sodium Caprate]
effect on in vivo bioavailability of SAMe / amount of SAMe in the plasma versus control [5]: did not enhance the in vivo bioavailability of SAMe
